Reference: ChEMBL document CHEMBL1145598, “Discovery and preclinical studies of 5-isopropyl-6-(5-methyl-1,3,4-oxadiazol-2-yl)-N-(2-methyl-1H-pyrrolo[2,3-b]pyridin-5-yl)pyrrolo[2,1-f][1,2,4]triazin-4-amine (BMS-645737), an in vivo active potent VEGFR-2 inhibitor” (Bioorg Med Chem Lett, 2008)
≈ marks a conversion by molar mass, not a printed value.

What was measured:
[1] = Half life in BALB/c mouse at 5 mg/kg, iv; format: ADME, organism-based; parameters: dose 5 mg/kg, route intravenous; settings: in vivo
[2] = Volume of distribution at steady state in BALB/c mouse at 5 mg/kg, iv; format: ADME, organism-based; parameters: dose 5 mg/kg, route intravenous; settings: in vivo, read-out: Vdss
[3] = Oral bioavailability in BALB/c mouse at 30 mg/kg; settings: in vivo
[4] = Total AUC in BALB/c mouse at 5 mg/kg, iv; format: ADME, organism-based; parameters: time AUCmax, dose 5 mg/kg, route intravenous; settings: in vivo
[5] = Mean resident time in BALB/c mouse at 5 mg/kg, iv; format: ADME, organism-based; parameters: dose 5 mg/kg, route intravenous; settings: in vivo
Cytochrome P450 3A4 = Cytochrome P450 3A4 (Homo sapiens, UniProt P08684); assay: Inhibition of CYP3A4; format: ADME
[6] = Half life in BALB/c mouse at 30 mg/kg, po; format: ADME, organism-based; parameters: dose 30 mg/kg, route oral; settings: in vivo
[7] = Clearance in BALB/c mouse at 5 mg/kg, iv; format: ADME, organism-based; parameters: dose 5 mg/kg, route intravenous; settings: in vivo
[8] = Total AUC in BALB/c mouse at 30 mg/kg, po; format: ADME, organism-based; parameters: time AUCmax, dose 30 mg/kg, route oral; settings: in vivo
[9] = AUC in human L2987 cells xenografted mouse at 15 mg/kg, po after 24 hrs; format: ADME, organism-based; parameters: time < 24 hr, dose 15 mg/kg, route oral; settings: in vivo
[10] = molecular target: Epidermal growth factor receptor (Homo sapiens, UniProt P00533); assay: Inhibition of EGFR
Mus musculus [11] = assay: Toxicity in human L2987 cells xenografted mouse assessed as weight loss at 7.5 mg/kg, po; format: organism-based; parameters: dose 7.5 mg/kg, route oral; settings: in vivo
[12] = molecular target: T1, Tyrosine-protein kinase JAK3 (Homo sapiens, UniProt P52333); assay: Inhibition of JAK3
T1 sequence (P52333 whole entry): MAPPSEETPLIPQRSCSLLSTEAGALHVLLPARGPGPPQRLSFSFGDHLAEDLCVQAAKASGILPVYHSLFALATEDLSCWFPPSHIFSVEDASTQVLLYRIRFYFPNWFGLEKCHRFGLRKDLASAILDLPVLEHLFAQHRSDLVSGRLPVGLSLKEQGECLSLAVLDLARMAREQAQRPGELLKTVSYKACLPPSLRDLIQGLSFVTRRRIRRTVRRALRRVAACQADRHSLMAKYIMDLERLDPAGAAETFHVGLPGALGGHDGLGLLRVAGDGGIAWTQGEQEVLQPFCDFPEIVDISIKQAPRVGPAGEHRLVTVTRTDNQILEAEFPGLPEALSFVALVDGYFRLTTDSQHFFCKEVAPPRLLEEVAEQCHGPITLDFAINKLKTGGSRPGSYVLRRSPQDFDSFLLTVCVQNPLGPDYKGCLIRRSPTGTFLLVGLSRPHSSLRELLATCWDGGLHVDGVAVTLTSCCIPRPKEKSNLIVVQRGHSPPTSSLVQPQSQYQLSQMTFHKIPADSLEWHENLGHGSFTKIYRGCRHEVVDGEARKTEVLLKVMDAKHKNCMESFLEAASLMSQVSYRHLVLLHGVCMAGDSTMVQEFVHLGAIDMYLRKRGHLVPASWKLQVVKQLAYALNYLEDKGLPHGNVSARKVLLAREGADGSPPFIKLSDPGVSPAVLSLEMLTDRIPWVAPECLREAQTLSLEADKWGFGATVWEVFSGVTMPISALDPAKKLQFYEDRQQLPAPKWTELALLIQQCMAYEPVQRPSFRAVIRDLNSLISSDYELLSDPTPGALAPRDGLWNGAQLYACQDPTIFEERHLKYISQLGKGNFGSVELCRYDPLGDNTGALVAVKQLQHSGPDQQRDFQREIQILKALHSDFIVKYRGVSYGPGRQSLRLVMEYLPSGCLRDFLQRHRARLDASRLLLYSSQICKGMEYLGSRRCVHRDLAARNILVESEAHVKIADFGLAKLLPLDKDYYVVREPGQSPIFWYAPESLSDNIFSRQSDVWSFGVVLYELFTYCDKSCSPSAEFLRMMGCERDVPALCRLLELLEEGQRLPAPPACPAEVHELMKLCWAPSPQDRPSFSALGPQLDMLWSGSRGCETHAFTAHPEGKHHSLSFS

HUVEC [13] = assay: Antiproliferative activity against VEGF-induced HUVEC; format: functional, cell-based; settings: Homo sapiens
NCI-N87 = assay: Antitumor activity against human N87 cells; format: functional, cell-based
[14] = Aqueous solubility at pH 6.5; format: physicochemical; settings: buffer
[15] = Cmax in human L2987 cells xenografted mouse at 15 mg/kg, po after 24 hrs; format: ADME, organism-based; parameters: dose 15 mg/kg, route oral; settings: in vivo
[16] = molecular target: Vascular endothelial growth factor receptor 2 (Mus musculus, UniProt P35918); assay: Inhibition of mouse Flk1
[17] = molecular target: Vascular endothelial growth factor receptor 1 (Homo sapiens, UniProt P17948); assay: Inhibition of VEGFR1
Mus musculus [18] = assay: Toxicity in human L2987 cells xenografted mouse assessed as weight loss at 15 mg/kg, po; format: organism-based; parameters: dose 15 mg/kg, route oral; settings: in vivo
[19] = molecular target: Voltage-gated inwardly rectifying potassium channel KCNH2 (Homo sapiens, UniProt Q12809); assay: Inhibition of human ERG by patch clamp method
[20] = molecular target: Fibroblast growth factor receptor 1 (Homo sapiens, UniProt P11362); assay: Inhibition of FGFR1
Mus musculus [21] = assay: Toxicity in human L2987 cells xenografted mouse assessed as morbidity at 15 mg/kg, po; format: organism-based; parameters: dose 15 mg/kg, route oral; settings: in vivo
[22] = Tmax in BALB/c mouse at 30 mg/kg, po; settings: in vivo
L2987 [23] = assay: Antitumor activity against po dosed human L2987 cells xenografted mouse after 24 hrs; format: functional
[24] = molecular target: Protein kinase C alpha type (Homo sapiens, UniProt P17252); assay: Inhibition of PKCalpha
L2987 [25] = assay: Antitumor activity against human L2987 cells xenografted in mouse; format: functional, cell-based
[26] = Cmax in human L2987 cells xenografted mouse at 7.5 mg/kg, po after 24 hrs; format: ADME, organism-based; parameters: dose 7.5 mg/kg, route oral; settings: in vivo
[27] = molecular target: Tyrosine-protein kinase Lck (Homo sapiens, UniProt P06239); assay: Inhibition of LCK
L2987 [28] = assay: Antitumor activity against human L2987 cells xenografted mouse at 15 mg/kg, po after 4 days; format: functional
[29] = Oral bioavailability in rat at 30 mg/kg; format: ADME, organism-based; settings: in vivo
[30] = AUC in human L2987 cells xenografted mouse at 7.5 mg/kg, po after 24 hrs; format: ADME, organism-based; parameters: time < 24 hr, dose 7.5 mg/kg, route oral; settings: in vivo
hERG (KCNH2) = hERG (KCNH2) (Homo sapiens, UniProt Q12809); assay: Inhibition of human ERG at 10 uM by patch clamp method
HUVEC [31] = assay: Antiproliferative activity against bFGF-induced HUVEC; format: functional, cell-based; settings: Homo sapiens
[32] = molecular target: Receptor tyrosine-protein kinase erbB-2 (Homo sapiens, UniProt P04626); assay: Inhibition of HER2
[33] = molecular target: Vascular endothelial growth factor receptor 2 (Homo sapiens, UniProt P35968)
Description: Inhibition of human VEGFR2

[34] = Antitumor activity against human H1993 cells; format: functional, cell-based; settings: NCI-H1993
[35] = Aqueous solubility at pH 2; format: physicochemical; settings: buffer
Mus musculus [36] = assay: Toxicity in human L2987 cells xenografted mouse assessed as morbidity at 7.5 mg/kg, po; format: organism-based; parameters: dose 7.5 mg/kg, route oral; settings: in vivo
Rattus norvegicus = assay: AUC in rat at 30 mg/kg; format: ADME, organism-based, Plasma; parameters: dose 30 mg/kg; settings: in vivo
L2987 [37] = assay: Antitumor activity against human L2987 cells xenografted mouse at 7.5 mg/kg, po after 4 days; format: functional
[38] = molecular target: Platelet-derived growth factor receptor beta (Homo sapiens, UniProt P09619); assay: Inhibition of PDGFRbeta
[39] = Antitumor activity against human GTL16 cells; format: functional, cell-based; settings: GTL 16
[40] = AUC in mouse at 50 mg/kg, po after 4 hrs; format: ADME, organism-based; parameters: time < 4 hr, dose 50 mg/kg, route oral; settings: plasma

Chain of Cytochrome P450 3A4 (P08684 whole entry): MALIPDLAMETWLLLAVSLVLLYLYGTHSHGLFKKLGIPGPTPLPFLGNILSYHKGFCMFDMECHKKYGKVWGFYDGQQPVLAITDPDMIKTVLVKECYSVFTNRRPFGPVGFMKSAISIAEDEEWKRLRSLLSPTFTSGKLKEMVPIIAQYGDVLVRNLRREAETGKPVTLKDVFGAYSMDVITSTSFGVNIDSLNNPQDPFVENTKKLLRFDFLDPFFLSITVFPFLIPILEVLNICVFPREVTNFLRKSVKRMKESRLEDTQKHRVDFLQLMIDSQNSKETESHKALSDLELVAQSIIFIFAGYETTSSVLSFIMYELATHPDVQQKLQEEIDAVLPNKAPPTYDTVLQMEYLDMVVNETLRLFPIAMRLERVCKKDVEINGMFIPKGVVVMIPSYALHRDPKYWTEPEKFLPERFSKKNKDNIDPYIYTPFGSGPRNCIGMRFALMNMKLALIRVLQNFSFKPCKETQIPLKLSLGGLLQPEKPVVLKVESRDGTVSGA
Chain of Platelet-derived growth factor receptor beta (P09619 whole entry): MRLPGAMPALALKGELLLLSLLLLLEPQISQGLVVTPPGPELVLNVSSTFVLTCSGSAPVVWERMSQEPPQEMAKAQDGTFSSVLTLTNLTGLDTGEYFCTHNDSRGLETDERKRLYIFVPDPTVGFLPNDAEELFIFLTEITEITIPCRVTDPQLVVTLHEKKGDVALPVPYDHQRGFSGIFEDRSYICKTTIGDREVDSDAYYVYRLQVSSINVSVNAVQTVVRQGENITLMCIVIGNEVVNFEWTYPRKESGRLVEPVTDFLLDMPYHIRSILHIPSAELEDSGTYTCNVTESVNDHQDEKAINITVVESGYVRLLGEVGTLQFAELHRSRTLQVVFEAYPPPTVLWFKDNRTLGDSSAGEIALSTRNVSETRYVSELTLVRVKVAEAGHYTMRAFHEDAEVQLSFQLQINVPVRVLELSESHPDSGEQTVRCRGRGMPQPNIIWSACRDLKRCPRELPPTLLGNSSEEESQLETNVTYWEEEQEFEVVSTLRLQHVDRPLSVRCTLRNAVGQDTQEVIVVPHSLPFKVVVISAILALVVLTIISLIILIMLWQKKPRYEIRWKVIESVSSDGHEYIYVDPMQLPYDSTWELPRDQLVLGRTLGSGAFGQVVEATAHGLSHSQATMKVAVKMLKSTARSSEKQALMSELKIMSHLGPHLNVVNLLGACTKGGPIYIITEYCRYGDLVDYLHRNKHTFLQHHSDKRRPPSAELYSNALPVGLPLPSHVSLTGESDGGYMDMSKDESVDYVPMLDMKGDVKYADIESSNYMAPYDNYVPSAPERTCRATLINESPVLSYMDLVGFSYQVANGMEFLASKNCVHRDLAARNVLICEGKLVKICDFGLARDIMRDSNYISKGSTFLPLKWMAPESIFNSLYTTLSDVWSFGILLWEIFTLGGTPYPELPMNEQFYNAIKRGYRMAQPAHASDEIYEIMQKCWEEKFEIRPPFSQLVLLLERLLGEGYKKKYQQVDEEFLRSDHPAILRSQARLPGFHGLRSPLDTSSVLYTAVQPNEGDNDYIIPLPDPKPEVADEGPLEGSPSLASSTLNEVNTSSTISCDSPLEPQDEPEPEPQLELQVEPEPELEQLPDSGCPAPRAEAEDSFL
Chain of hERG (KCNH2) (Q12809 whole entry): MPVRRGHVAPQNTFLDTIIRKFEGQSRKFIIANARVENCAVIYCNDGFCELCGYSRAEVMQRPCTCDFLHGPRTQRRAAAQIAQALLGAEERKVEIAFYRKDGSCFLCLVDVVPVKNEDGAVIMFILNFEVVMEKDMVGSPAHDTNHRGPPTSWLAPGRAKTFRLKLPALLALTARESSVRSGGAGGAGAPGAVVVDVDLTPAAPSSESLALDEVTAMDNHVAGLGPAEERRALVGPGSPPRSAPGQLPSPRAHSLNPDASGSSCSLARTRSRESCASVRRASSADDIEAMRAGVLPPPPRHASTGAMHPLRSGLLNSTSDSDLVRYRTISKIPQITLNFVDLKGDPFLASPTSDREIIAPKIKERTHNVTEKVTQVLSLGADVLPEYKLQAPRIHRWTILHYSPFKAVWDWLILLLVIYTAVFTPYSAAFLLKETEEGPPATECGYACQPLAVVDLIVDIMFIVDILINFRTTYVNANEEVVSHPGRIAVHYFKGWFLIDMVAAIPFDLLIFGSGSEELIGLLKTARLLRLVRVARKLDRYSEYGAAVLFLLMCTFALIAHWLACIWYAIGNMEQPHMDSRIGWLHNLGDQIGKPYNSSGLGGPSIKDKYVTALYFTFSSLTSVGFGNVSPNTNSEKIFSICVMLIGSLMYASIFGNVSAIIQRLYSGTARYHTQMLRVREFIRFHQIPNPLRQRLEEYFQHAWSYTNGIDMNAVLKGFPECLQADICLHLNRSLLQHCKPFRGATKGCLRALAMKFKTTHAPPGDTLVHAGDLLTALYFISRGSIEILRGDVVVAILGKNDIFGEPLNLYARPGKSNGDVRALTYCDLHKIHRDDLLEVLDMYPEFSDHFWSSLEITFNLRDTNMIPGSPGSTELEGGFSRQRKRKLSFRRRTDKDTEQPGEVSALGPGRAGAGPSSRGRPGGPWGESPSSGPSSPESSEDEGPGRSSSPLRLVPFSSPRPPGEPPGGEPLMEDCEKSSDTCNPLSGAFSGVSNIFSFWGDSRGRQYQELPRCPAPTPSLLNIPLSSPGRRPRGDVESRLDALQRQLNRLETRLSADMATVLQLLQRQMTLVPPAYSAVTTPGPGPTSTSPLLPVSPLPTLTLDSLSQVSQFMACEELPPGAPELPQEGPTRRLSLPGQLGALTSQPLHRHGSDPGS
Chain of Fibroblast growth factor receptor 1 (P11362 whole entry): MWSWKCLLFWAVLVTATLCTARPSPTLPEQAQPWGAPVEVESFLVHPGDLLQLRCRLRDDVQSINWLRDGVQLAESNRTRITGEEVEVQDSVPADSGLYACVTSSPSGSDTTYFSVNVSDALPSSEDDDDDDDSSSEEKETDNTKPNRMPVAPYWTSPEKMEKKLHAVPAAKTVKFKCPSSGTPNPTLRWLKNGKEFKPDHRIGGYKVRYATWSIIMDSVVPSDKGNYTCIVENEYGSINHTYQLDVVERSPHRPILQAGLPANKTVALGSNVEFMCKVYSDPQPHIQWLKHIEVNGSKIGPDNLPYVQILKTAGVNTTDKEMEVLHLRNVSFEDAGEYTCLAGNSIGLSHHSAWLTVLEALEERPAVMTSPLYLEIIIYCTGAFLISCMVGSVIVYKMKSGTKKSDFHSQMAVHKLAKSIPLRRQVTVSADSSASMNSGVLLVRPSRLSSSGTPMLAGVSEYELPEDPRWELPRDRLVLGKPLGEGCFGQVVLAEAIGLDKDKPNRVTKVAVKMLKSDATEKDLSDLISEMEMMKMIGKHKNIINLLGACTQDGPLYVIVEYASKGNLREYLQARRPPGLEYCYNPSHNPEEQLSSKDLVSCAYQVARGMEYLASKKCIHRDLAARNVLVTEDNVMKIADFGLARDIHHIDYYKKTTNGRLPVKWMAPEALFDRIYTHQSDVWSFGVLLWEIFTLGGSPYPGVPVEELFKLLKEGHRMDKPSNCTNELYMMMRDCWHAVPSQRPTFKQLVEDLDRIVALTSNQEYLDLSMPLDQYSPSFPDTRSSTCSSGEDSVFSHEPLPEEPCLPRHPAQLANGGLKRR
Chain of Tyrosine-protein kinase Lck (P06239 whole entry): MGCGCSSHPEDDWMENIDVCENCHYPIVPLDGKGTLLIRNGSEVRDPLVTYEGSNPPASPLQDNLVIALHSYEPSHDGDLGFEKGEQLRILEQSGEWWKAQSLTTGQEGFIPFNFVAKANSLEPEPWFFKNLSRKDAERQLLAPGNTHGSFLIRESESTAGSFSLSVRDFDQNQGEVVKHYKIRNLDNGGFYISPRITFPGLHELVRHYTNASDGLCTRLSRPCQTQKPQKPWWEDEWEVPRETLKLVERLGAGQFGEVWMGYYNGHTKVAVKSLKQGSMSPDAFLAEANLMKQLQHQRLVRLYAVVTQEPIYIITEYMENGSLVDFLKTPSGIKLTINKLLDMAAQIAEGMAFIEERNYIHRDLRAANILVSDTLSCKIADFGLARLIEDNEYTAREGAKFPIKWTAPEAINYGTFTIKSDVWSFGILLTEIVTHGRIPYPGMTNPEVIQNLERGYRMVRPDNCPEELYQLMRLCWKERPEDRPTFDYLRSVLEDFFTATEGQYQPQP

CNc1nnc(-c2cn3ncnc(Nc4cnc5[nH]c(C)cc5c4)c3c2C(C)C)o1
half-life [1]: 2.8 h
Vd [2]: 1.2 L/kg
bioavailability [3]: 99%
AUC [4]: 46 µM·h
MRT [5]: 4.3 h
IC50 (Cytochrome P450 3A4): 6400 nM
half-life [6]: 2.8 h
clearance [7]: 4.5 mL/min/kg
AUC [8]: 272 µM·h

Cc1cc2cc(Nc3ncnn4cc(-c5nnc(C)o5)c(C(C)C)c34)cnc2[nH]1
AUC at 24 h [9]: 30 µM·h
IC50 [10]: > 1000 nM
Activity (Mus musculus [11]): Non-toxic
IC50 [12]: > 50000 nM
IC50 (HUVEC [13]): 13 nM
IC50 (NCI-N87): > 10000 nM
half-life [1]: 2.9 h
Vd [2]: 1.4 L/kg
solubility [14]: 2.8 µg/mL (≈ 7.21 µM)
bioavailability [3]: > 100%
Cmax [15]: 2640 nM
IC50 [16]: 53 nM
IC50 [17]: 268 nM
Activity (Mus musculus [18]): Non-toxic
IC50 [19]: 6600 nM
IC50 [20]: 78 nM
Activity (Mus musculus [21]): Non-toxic
Tmax [22]: 0.5 h
Activity (L2987 [23]): Dose-dependent effect
minimal effective dose (L2987 [23]; read-out: MED): 7.5 mg/kg
IC50 [24]: > 50000 nM
IC50 (L2987 [25]): > 2500 nM
Cmax [26]: 1030 nM
IC50 [27]: > 2000 nM
Activity (L2987 [28]): >=50%
bioavailability [29]: 68%
AUC [4]: 25 µM·h
MRT [5]: 2.7 h
AUC at 24 h [30]: 11 µM·h
IC50 (Cytochrome P450 3A4): 11500 nM
half-life [6]: 2.5 h
inhibition at 10 µM (hERG (KCNH2)): 64%
IC50 (HUVEC [31]): 138 nM
IC50 [32]: > 5000 nM
IC50 [33]: 25 nM
IC50 [34]: > 10000 nM
solubility [35]: 400 µg/mL (≈ 1030 µM)
clearance [7]: 8.5 mL/min/kg
AUC [8]: 182 µM·h
Activity (Mus musculus [36]): Non-toxic
AUC (Rattus norvegicus): 287 µM·h
Activity (L2987 [37]): >=50%
IC50 [38]: > 2000 nM
IC50 [39]: > 10000 nM

Cc1c(OC[C@@H](C)O)cn2ncnc(Oc3cnc4[nH]ccc4c3F)c12
AUC at 4 h [40]: 11.1 µM·h

Cc1cc2c(F)c(Oc3ncnn4cc(OC[C@@H](C)O)c(C)c34)cnc2[nH]1
AUC at 4 h [40]: 29.6 µM·h

Cc1nnc(-c2cn3ncnc(Nc4cnc5[nH]ccc5c4)c3c2C(C)C)o1
IC50 [10]: 150 nM
IC50 [12]: > 50000 nM
half-life [1]: 1.2 h
Vd [2]: 1.9 L/kg
bioavailability [3]: 29%
IC50 [20]: 61 nM
IC50 [24]: > 50000 nM
IC50 [27]: 185 nM
AUC [4]: 12.4 µM·h
MRT [5]: 1.7 h
IC50 (Cytochrome P450 3A4): > 40000 nM
half-life [6]: 4.5 h
inhibition at 10 µM (hERG (KCNH2)): 29%
IC50 [32]: 500 nM
IC50 [33]: 31 nM
clearance [7]: 18 mL/min/kg
AUC [8]: 21.7 µM·h
IC50 [38]: 389 nM

Cc1cc2c(F)c(Oc3ncnn4cc(OC[C@@H](C)O)c(C)c34)ccc2[nH]1 [BRIVANIB]
AUC at 4 h [40]: 136 µM·h
